Experimental data from US10301272B2, “Carboxamide or sulfonamide substituted thiazoles and related derivatives as modulators for the orphan nuclear receptor ROR[γ]” (Phenex Pharmaceuticals AG, priority 2012, dated 2019).

Assays:
[1] = target: RORγ (Homo sapiens, UniProt P51449); experiment: RORγ Gal4 Reporter Gene Assay; assay type: cell-based
Procedure, shortened: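 Cells at 5×10^5/well were transfected with RORγ fragments fused to the GAL4 DNA-binding domain (CMV promoter), a 5×GAL4-site firefly luciferase reporter and CMV-Renilla luciferase for normalization. About 4 h later serum-free MEM and compound were added (vehicle ≤0.1%). Cultures at 37 °C, 5% CO2; at least triplicates.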

[2] = target: RORγ ligand binding domain (LBD) (Homo sapiens (Human), UniProt P51449); experiment: TR-FRET Activity Assay (ligand sensing assay, LANCE); conditions: TR-FRET, interaction of RORγ-LBD with coactivator peptide
RORγ ligand binding domain (LBD), sequence (P51449 269-508): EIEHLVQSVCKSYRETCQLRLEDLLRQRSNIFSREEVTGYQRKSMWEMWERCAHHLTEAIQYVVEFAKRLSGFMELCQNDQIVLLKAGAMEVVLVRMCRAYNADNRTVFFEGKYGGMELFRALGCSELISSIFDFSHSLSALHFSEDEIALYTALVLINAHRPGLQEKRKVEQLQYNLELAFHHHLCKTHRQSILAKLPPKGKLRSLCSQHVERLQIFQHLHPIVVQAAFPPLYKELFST

RORγ, sequence (P51449 whole entry, looked up, the tested form may be a part): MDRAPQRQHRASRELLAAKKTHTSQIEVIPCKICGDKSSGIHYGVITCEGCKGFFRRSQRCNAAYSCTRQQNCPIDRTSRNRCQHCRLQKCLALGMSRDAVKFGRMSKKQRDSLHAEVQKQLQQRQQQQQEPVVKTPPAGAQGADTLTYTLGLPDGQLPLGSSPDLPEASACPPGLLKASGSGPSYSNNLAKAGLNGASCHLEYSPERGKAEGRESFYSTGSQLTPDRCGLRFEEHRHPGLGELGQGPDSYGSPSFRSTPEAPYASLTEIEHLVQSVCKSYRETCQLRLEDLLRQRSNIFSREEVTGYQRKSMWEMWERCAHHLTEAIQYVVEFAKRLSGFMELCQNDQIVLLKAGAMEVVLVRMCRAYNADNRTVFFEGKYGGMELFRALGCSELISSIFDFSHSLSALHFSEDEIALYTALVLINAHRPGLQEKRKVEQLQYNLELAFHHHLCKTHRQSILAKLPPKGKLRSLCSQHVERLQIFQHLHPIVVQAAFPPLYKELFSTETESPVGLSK

With CC(C)(C)NS(=O)(=O)c1ccc(-c2sc(C(=O)NC3CCS(=O)(=O)CC3)nc2CC2CC2)c(Cl)c1Cl [6/35] the “pIC50 (FF)” value [1] was 7.0/7.5/7.5, the “pIC50 (REN)” value [1] was 7.0/7.5/7.5 and the “pIC50 (FRET)” value [2] was 7.0/7.5/7.5.

In the case of CC(C)(C)NS(=O)(=O)c1ccc(-c2sc(C(=O)NCC3(C(=O)O)CCOCC3)nc2CC2CCCCC2)c(Cl)c1Cl [6/36], the “pIC50 (FF)” value [1] is reported as 6.3/7.4/7.4, the “pIC50 (REN)” value [1] is reported as 6.3/7.4/7.4 and the “pIC50 (FRET)” value [2] is reported as 6.3/7.4/7.4.

With CC(C)(C)NS(=O)(=O)c1ccc(-c2sc(C(=O)N3CC(C(C)(C)C(=O)O)C3)nc2CC2CCCCC2)c(Cl)c1Cl [6/37] the “pIC50 (FF)” value [1] was 6.1/6.9/6.9, the “pIC50 (REN)” value [1] was 6.1/6.9/6.9 and the “pIC50 (FRET)” value [2] was 6.1.

With CC(C)(C)NS(=O)(=O)c1ccc(-c2sc(C(=O)NC34CC(C(=O)O)(C3)C4)nc2CC2CCCCC2)c(Cl)c1Cl [6/38] the “pIC50 (FF)” value [1] was 6.8/7.8/7.9, the “pIC50 (REN)” value [1] was 6.8/7.8/7.9 and the “pIC50 (FRET)” value [2] was 6.8/7.8/7.9.

In the case of CC(C)(C)NS(=O)(=O)c1ccc(-c2sc(C(=O)NCCC(C)(C)C(=O)O)nc2CC2CCCCC2)c(Cl)c1Cl [6/39], the “pIC50 (FF)” value [1] is reported as 6.4/8.2/8.2, the “pIC50 (REN)” value [1] is reported as 6.4/8.2/8.2 and the “pIC50 (FRET)” value [2] is reported as 6.4/8.2/8.2.

For CSc1cnc(CNC(=O)c2nc(CC3CCCCC3)c(-c3ccc(S(=O)(=O)NC(C)(C)C)c(Cl)c3Cl)s2)s1 [6/40], the “pIC50 (FF)” value [1] was 7.0/8.2/8.3, the “pIC50 (REN)” value [1] was 7.0/8.2/8.3 and the “pIC50 (FRET)” value [2] was 7.0/8.2/8.3.

With CC(C)(C)NS(=O)(=O)c1ccc(-c2sc(C(=O)N[C@H]3C[C@H](S(C)(=O)=O)C3)nc2CC2CCCCC2)c(Cl)c1Cl [6/41] the “pIC50 (FF)” value [1] was 7.3/8.0/8.2, the “pIC50 (REN)” value [1] was 7.3/8.0/8.2 and the “pIC50 (FRET)” value [2] was 7.3/8.0/8.2.

CC(C)(C)NS(=O)(=O)c1ccc(-c2sc(C(=O)N[C@H]3C[C@@H](S(C)(=O)=O)C3)nc2CC2CCCCC2)c(Cl)c1Cl [6/42] was tested, and the “pIC50 (FF)” value [1] was 7.2/8.2/8.4, the “pIC50 (REN)” value [1] was 7.2/8.2/8.4 and the “pIC50 (FRET)” value [2] was 7.2/8.2/8.4.

With CC(C)(C)NS(=O)(=O)c1ccc(-c2sc(C(=O)NC3CCS(=O)(=O)CC3)nc2CC2CCCCC2)c(Cl)c1Cl [6/43] the “pIC50 (FF)” value [1] was 7.0/8.7/8.7, the “pIC50 (REN)” value [1] was 7.0/8.7/8.7 and the “pIC50 (FRET)” value [2] was 7.0/8.7/8.7.

In the case of CC(C)(C)NS(=O)(=O)c1ccc(-c2sc(C(=O)N3CC4CC(C3)O4)nc2CC2CCCCC2)c(Cl)c1Cl [6/44], the “pIC50 (FF)” value [1] is reported as 7.4/7.8/8.0, the “pIC50 (REN)” value [1] is reported as 7.4/7.8/8.0 and the “pIC50 (FRET)” value [2] is reported as 7.4/7.8/8.0.

With CC(C)(C)NS(=O)(=O)c1ccc(-c2sc(C(=O)N3CC4(CCS(=O)(=O)CC4)C3)nc2CC2CCCCC2)c(Cl)c1Cl [6/45] the “pIC50 (FF)” value [1] was 7.1/7.9/8.0, the “pIC50 (REN)” value [1] was 7.1/7.9/8.0 and the “pIC50 (FRET)” value [2] was 7.1/7.9/8.0.

CC(C)(C)NS(=O)(=O)c1ccc(-c2sc(C(=O)NC3CCC(C(=O)O)C3)nc2CC2CCCCC2)c2ccccc12 (stereo not drawn) [6/51] was tested, and the “pIC50 (FF)” value [1] was 6.3/8.4/8.4, the “pIC50 (REN)” value [1] was 6.3/8.4/8.4 and the “pIC50 (FRET)” value [2] was 6.3/8.4/8.4.

With CN1CCN(C(=O)c2nc(CC3CCCCC3)c(-c3ccc(S(=O)(=O)NC(C)(C)C)c4ccccc34)s2)CC1 [6/53] the “pIC50 (FF)” value [1] was 6.6/7.1/7.4, the “pIC50 (REN)” value [1] was 6.6/7.1/7.4 and the “pIC50 (FRET)” value [2] was 6.6/7.1/7.4.

For CC(C)(C)NS(=O)(=O)c1ccc(-c2sc(C(=O)N[C@H]3C[C@H](C(=O)O)C3)nc2CC2CCCCC2)cc1C(C)(C)C [7/2], the “pIC50 (FF)” value [1] was 6.2/7.5/7.6, the “pIC50 (REN)” value [1] was 6.2/7.5/7.6 and the “pIC50 (FRET)” value [2] was 6.2/7.5/7.6.

For CC(C)(C)c1cc(-c2sc(C(=O)N[C@H]3C[C@H](C(=O)O)C3)nc2CC2CCCCC2)cc(C(F)F)c1 [7/5], the “pIC50 (FF)” value [1] was 6.3/7.0/7.1, the “pIC50 (REN)” value [1] was 6.3/7.0/7.1 and the “pIC50 (FRET)” value [2] was 6.3/7.0/7.1.

CC1(c2cc(C(=O)NCC(F)(F)F)cc(-c3sc(C(=O)N[C@H]4C[C@H](C(=O)O)C4)nc3CC3CCCCC3)c2)CC1 [7/6] was tested, and the “pIC50 (FF)” value [1] was 6.2/7.1/7.2, the “pIC50 (REN)” value [1] was 6.2/7.1/7.2 and the “pIC50 (FRET)” value [2] was 6.2/7.1/7.2.

With CC(C)COc1cc(-c2sc(C(=O)N[C@H]3C[C@H](C(=O)O)C3)nc2CC2CCCCC2)cc(C(C)(C)C)n1 [7/11] the “pIC50 (FF)” value [1] was 5.9/7.4/7.4, the “pIC50 (REN)” value [1] was 5.9/7.4/7.4 and the “pIC50 (FRET)” value [2] was 5.9/7.4/7.4.

With CC(C)(C)NS(=O)(=O)c1ccc(-c2sc(C(=O)N[C@H]3C[C@H](C(=O)O)C3)nc2CC2CCCCC2)c(Cl)c1C(F)(F)F [7/12] the “pIC50 (FF)” value [1] was 6.2/8.0/8.2, the “pIC50 (REN)” value [1] was 6.2/8.0/8.2 and the “pIC50 (FRET)” value [2] was 6.2/8.0/8.2.

With Cc1c(S(=O)(=O)NC(C)(C)C)ccc(-c2sc(C(=O)N[C@H]3C[C@H](C(=O)O)C3)nc2CC2CCCCC2)c1C(F)(F)F [7/14] the “pIC50 (FF)” value [1] was 5.8/8.5/8.7, the “pIC50 (REN)” value [1] was 5.8/8.5/8.7 and the “pIC50 (FRET)” value [2] was 5.8/8.5/8.7.

CC(C)(C)NS(=O)(=O)c1ccc(-c2sc(C(=O)N[C@H]3C[C@H](C(=O)O)C3)nc2CC2CCCCC2)c(F)c1C(F)F [7/15] was tested, and the “pIC50 (FF)” value [1] was 6.7/8.7/8.5, the “pIC50 (REN)” value [1] was 6.7/8.7/8.5 and the “pIC50 (FRET)” value [2] was 6.7/8.7/8.5.

For CC(C)(C)NS(=O)(=O)c1ccc(-c2sc(C(=O)N[C@H]3C[C@H](C(=O)O)C3)nc2CC2CCCCC2)c(C(F)F)c1Cl [7/16], the “pIC50 (FF)” value [1] was 6.5/8.5/8.5, the “pIC50 (REN)” value [1] was 6.5/8.5/8.5 and the “pIC50 (FRET)” value [2] was 6.5/8.5/8.5.
